By IC50 is commonly meant the midpoint of a concentration-inhibition curve. As a reminder, the EC50 is the concentration giving half of the maximal effect. A high value points to a less potent agent.

These results are taken from patent publication US8822462B2, “Subunit selective NMDA receptor potentiators for the treatment of neurological conditions” (Emory University, priority 2009, dated 2014).

Assay [1] deals with T1, NR1/NR2A (Homo sapiens, UniProt Q12879).
T1 construct: expressed in transfected cells; host or cells: Xenopus laevis oocytes
Briefly: Two electrode voltage clamp, Xenopus laevis oocytes expressing NR1/NR2A. It is filed as cell-based. The settings on record: read-out: 2A percent effect at the maximum tested concentration. The protocol: (§1) In the table above, potency is expressed as fitted EC50 value to average composite concentration-effect data constructed from current responses recorded under two electrode voltage clamp from Xenopus laevis oocytes expressing either NR1/NR2A, B, C, or D, GluR1, or GluR6. No effect means less than 20% change in response amplitude at 30 μM of drug.
On the technique in general: In two-electrode clamp one electrode senses voltage and the other passes current.

Assay [2] has as its target T2, NR1/NR2C (Homo sapiens, UniProt Q05586+Q14957).
T2 construct: expressed in transfected cells; host or cells: Xenopus laevis oocytes
Briefly: Two electrode voltage clamp, Xenopus laevis oocytes expressing NR1/NR2C. It is filed as cell-based. To be noted: for IC50: fitted to composite concentration-effect data, read-out: 2C IC50; for Emax: maximal effect of fit, read-out: 2C Max.
Description: Values are mean+SEM (n=14-20). […] C is the closed level; broken line is the open level.
The Hill slope at both receptors for all analogues was greater than 1, consistent with a cooperative effect of binding at two sites.
as §1

Assay [3] deals with NR1/NR2D (Homo sapiens, UniProt O15399+Q05586). Briefly: Two electrode voltage clamp, Xenopus laevis oocytes expressing NR1/NR2D. To be noted: for activity at 30 µM: read-out: 2D percent effect at the maximum tested concentration, at 30 μM; for activity at 100 µM: read-out: 2D percent effect at the maximum tested concentration, at 100 μM; for Emax: read-out: 2D Max.
The target of assay [4] is T3, NR1/NR2B (Homo sapiens, UniProt Q05586+Q13224).
T3 construct: expressed in transfected cells; host or cells: Xenopus laevis oocytes
Briefly: Two electrode voltage clamp, Xenopus laevis oocytes expressing NR1/NR2B. The settings on record: read-out: 2B percent effect at the maximum tested concentration. In kind it is cell-based. As to the method: as §1

[5] abbreviates: read-out: 2C percent effect at the maximum tested concentration.

Chain of NR1/NR2D (O15399 28-1336, species assumed, other chains not shown): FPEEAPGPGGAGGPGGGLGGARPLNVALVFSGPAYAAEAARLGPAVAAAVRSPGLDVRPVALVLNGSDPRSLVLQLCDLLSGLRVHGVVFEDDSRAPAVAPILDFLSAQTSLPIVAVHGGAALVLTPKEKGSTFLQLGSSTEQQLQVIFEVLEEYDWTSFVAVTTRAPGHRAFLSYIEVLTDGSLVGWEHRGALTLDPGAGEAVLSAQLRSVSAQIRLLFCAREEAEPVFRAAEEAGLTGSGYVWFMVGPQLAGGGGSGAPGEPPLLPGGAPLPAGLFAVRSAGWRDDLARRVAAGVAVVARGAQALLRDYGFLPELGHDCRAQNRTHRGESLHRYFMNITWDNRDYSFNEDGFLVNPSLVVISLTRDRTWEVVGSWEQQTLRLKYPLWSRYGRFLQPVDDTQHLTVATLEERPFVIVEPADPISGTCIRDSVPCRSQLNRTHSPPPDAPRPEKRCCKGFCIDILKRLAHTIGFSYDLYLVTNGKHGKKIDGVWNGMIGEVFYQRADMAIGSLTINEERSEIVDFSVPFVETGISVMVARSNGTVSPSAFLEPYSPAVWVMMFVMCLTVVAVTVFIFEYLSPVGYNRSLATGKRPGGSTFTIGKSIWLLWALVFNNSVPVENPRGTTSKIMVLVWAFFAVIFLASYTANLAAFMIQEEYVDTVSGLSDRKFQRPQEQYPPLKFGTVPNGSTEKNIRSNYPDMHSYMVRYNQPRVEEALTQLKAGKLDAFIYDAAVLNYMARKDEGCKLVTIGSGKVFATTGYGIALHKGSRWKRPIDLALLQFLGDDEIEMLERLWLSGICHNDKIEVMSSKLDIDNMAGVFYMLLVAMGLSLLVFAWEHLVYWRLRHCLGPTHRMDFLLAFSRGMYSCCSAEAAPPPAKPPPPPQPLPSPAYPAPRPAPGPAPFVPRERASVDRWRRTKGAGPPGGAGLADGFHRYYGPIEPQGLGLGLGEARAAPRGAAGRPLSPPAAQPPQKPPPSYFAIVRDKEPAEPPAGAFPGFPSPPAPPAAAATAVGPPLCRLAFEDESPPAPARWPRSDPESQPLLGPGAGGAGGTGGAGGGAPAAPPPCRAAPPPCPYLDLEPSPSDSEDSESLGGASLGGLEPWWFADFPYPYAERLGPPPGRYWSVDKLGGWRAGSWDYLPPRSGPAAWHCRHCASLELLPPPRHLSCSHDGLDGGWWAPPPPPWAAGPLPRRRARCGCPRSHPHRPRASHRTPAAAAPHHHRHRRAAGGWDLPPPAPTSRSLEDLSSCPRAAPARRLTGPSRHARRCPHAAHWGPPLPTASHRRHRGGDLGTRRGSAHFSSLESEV
T2 sequence (Q14957 20-1233, species assumed, other chains not shown): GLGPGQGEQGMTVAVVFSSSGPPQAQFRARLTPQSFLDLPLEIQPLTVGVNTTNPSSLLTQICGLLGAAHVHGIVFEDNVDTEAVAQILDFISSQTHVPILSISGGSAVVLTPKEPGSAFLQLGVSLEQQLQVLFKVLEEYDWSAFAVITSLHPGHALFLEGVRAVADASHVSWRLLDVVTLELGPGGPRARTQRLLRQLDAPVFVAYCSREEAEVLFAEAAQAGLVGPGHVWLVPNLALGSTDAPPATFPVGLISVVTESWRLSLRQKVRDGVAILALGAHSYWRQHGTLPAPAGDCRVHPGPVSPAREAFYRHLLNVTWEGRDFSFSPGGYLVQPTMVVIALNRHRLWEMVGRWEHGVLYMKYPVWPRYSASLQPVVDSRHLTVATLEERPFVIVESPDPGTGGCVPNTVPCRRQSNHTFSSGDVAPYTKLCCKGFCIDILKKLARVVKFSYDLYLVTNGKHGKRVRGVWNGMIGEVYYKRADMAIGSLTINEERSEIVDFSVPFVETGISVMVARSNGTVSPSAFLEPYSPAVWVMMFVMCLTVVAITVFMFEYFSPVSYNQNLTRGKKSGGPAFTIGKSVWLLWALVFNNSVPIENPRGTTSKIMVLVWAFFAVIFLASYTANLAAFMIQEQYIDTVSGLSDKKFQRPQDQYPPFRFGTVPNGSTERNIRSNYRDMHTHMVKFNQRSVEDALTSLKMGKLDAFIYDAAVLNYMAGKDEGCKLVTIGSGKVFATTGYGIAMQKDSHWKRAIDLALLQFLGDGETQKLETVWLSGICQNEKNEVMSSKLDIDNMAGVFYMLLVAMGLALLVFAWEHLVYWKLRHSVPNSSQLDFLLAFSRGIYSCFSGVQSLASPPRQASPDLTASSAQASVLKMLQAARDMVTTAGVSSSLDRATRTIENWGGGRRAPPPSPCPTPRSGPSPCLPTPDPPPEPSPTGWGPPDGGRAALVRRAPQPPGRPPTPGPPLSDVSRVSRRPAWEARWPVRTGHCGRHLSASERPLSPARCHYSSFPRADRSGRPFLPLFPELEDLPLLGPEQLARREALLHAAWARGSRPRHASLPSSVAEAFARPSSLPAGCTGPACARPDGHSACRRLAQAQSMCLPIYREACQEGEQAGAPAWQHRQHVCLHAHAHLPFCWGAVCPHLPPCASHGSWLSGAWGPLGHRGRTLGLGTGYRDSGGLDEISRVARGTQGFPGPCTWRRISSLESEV
T1 sequence (Q12879 23-1464, species assumed, other chains not shown): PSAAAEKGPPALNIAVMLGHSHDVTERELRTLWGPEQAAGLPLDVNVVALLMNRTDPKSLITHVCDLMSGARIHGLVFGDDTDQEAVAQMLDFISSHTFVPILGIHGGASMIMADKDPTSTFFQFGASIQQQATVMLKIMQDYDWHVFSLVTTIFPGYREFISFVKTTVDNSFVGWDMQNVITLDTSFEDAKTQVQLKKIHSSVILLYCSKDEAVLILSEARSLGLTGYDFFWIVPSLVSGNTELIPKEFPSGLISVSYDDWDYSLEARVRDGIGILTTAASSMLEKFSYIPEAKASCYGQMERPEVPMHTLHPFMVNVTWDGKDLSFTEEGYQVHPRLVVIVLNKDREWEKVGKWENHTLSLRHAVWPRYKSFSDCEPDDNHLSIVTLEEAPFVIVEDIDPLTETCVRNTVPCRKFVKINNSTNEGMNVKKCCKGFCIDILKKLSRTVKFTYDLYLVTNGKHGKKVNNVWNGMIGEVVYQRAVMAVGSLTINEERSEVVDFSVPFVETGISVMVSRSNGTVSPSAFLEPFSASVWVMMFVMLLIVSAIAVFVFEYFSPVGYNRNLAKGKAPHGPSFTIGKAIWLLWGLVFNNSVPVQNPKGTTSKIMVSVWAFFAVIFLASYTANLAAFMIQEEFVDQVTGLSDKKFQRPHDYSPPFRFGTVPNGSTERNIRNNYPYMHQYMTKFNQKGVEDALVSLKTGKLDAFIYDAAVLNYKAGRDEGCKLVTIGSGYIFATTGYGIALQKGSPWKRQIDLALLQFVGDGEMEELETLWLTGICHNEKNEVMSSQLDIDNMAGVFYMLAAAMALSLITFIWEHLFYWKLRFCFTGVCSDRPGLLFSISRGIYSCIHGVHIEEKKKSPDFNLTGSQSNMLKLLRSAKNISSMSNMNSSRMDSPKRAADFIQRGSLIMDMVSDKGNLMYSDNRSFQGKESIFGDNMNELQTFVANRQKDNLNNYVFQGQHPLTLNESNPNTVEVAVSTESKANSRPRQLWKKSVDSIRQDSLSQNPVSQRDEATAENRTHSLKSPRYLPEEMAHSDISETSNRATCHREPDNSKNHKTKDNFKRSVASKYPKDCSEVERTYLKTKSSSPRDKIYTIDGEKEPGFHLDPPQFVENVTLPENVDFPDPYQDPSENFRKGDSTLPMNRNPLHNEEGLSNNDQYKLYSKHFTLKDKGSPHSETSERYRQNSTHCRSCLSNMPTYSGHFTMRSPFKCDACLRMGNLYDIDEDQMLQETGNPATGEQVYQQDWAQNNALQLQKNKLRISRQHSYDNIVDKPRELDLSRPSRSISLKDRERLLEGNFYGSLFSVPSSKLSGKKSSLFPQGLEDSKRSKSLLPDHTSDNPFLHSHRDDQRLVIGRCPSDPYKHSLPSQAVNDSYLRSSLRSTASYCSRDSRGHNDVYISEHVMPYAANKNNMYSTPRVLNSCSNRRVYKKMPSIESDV

On to `COc1cc2c(cc1OC)C(CCc1ccccc1)N(C(=O)c1cccc(F)c1)CC2` (stereo not drawn) [1180-1], for which, in assay [1], the activity at 100 µM was determined as 110%. For the same compound, the activity at 30 µM in assay [2] (at 30 μM, read-out: 2C percent effect at the maximum tested concentration) came to 96%; in assay [3] it was 90%.

Take `COc1cc2c(cc1OC)C(COc1ccccc1)N(C(=O)c1ccccc1)CC2` (stereo not drawn) [1180-2]: the activity at 100 µM in assay [1] stood at 100%; in assay [4], 101%; in assay [2] (setting [5]), 77%; in assay [3] it was 81%.

`COc1ccc(OCC2c3cc(OC)c(OC)cc3CCN2C(=O)c2cccc(O)c2)cc1` (stereo not drawn) [1180-3]: the activity at 100 µM was 126% in assay [1], 78% in assay [4], 81% in assay [2] (setting [5]) and 79% in assay [3].

With `COc1ccc(OCC2c3cc(OC)c(OC)cc3CCN2C(=O)c2ccco2)cc1` (stereo not drawn) [1180-4], the activity at 100 µM in assay [1] was 105%; in assay [4] it was 69%; in assay [2] (setting [5]), 100%; in assay [3], 89%.

Take `COc1ccc(OCC2c3cc(OC)c(OC)cc3CCN2C(=O)c2ccno2)cc1` (stereo not drawn) [1180-5]: the activity at 100 µM in assay [1] was determined as 98%; in assay [4], 86%; in assay [2] (setting [5]), 83%; in assay [3], 81%.

`COc1cccc(OCC2c3cc(OC)c(OC)cc3CCN2C(=O)c2cccc(Cl)c2)c1` (stereo not drawn) [1180-6]: the activity at 100 µM in assay [1] was 93%; in assay [4], 97%; in assay [2] (setting [5]), 94%; in assay [3], 88%.

As for `COc1cccc(OCC2c3cc(OC)c(OC)cc3CCN2C(=O)c2ccccc2)c1` (stereo not drawn) [1180-7], the activity at 100 µM in assay [1] was 94%; in assay [4], 92%; in assay [2] (setting [5]) it was 75%; in assay [3] it was 75%.

As to `COc1cc2c(cc1OC)C(COc1ccccc1OC)N(C(=O)c1cccc(Cl)c1)CC2` (stereo not drawn) [1180-8], the activity at 100 µM in assay [1] is 99%; in assay [4] it was 89%; in assay [2] (setting [5]), 73%; in assay [3] it was 84%.

For `COc1cc2c(cc1OC)C(COc1ccc(OC(F)(F)F)cc1)N(C(=O)c1cccc(Cl)c1)CC2` (stereo not drawn) [1180-9], the activity at 100 µM came to 87% in assay [1], 97% in assay [4], 109% in assay [2] (setting [5]) and 99% in assay [3].

Consider `COc1ccc(OCC2c3cc(OC)c(OC)cc3CCN2C(=O)c2ccc(Cl)c(Cl)c2)cc1` (stereo not drawn) [1180-10], for which, in assay [2], the IC50 worked out at 3 µM and the Emax amounted to 134%. In assay [3], the concentration for half-maximal inhibition (IC50) is 8 µM and the Emax came out at 172%.

Take `COc1ccc(OCC2c3cc(OC)c(OC)cc3CCN2C(=O)c2cccc(I)c2)cc1` (stereo not drawn) [1180-11]: the activity at 30 µM in assay [1] was 84%; in assay [4], 82%; in assay [3] it was 111%. Moreover, the IC50 in assay [2] is 31 µM. In addition, the Emax in assay [2] came out at 431%.

`COc1ccc(OCC2c3cc(OC)c(OC)cc3CCN2C(=O)c2cccc(Cl)c2Cl)cc1` (stereo not drawn) [1180-12]: the results for the activity at 30 µM in assay [1], in assay [4] and in assay [3] were 97%, 90% and 109%, respectively. The IC50 in assay [2] is 2 µM. Further, the Emax in assay [2] was 133%.

Regarding `COc1cc2c(cc1OC)C(COc1ccc(SC)cc1)N(C(=O)c1cccc(Cl)c1)CC2` (stereo not drawn) [1180-13], the activity at 100 µM came to 112% in assay [1], 67% in assay [4], 97% in assay [2] (setting [5]) and 105% in assay [3].

In the case of `COc1cc2c(cc1OC)C(COc1ccc(SC)cc1)N(C(=O)c1ccccc1)CC2` (stereo not drawn) [1180-14], the activity at 100 µM in assay [1] was found to be 115%; in assay [4], 128%; in assay [2] (setting [5]) it was 93%; in assay [3], 103%.

For the compound `COc1ccc(OC[C@@H]2c3cc(OC)c(OC)cc3CCN2C(=O)c2cccc(Cl)c2)cc1` [1180-15], the activity at 30 µM in assay [1] was 128%. Besides, in assay [2], the IC50 worked out at 2.4 µM and the Emax was 330%. In assay [3], half-maximal inhibition (IC50) required 4 µM and the Emax was 364%.

In the case of `COc1ccc(OCC2c3cc(OC)c(OC)cc3CCN2C(=O)c2cccc([N+](=O)[O-])c2)cc1` (stereo not drawn) [1180-16], the figures for the activity at 100 µM in assay [1] and in assay [4] were 50% and 123%, respectively. Besides, the IC50 in assay [2] stood at 13 µM; in assay [3] it was 16 µM. In addition, the values for the Emax in assay [2] and in assay [3] were 267% and 297%, respectively.

Turning to `COc1ccc(OCC2c3cc(OC)c(OC)cc3CCN2Cc2ccccc2)cc1` (stereo not drawn) [1180-17], the activity at 20 µM in assay [1] (at 20 μM) came out at 50%. The values for the activity at 100 µM in assay [4], in assay [2] (setting [5]) and in assay [3] were 90%, 95% and 83%, respectively.

With `COc1ccc(OCC2c3cc(OC)c(OC)cc3CCN2C(=O)c2ccc(F)c(Cl)c2)cc1` (stereo not drawn) [1180-18], the activity at 100 µM amounted to 136% in assay [1] and 95% in assay [4]. Also, the IC50 was 6 µM in assay [2] and 7 µM in assay [3]. The Emax in assay [2] was determined as 226%; in assay [3], 206%.

For the compound `COc1ccc(OCC2c3c(cc(OC)cc3OC)CCN2C(=O)c2ccccc2)cc1` (stereo not drawn) [1180-19], the activity at 100 µM in assay [1] was 63%; in assay [4], 100%. In addition, the IC50 turned out to be 10 µM in assay [2] and 9 µM in assay [3]. The results for the Emax in assay [2] and in assay [3] were 160% and 150%, respectively.

For the compound `COc1ccc(OCC2c3c(cc(OC)cc3OC)CCN2C(=O)c2cccc(Cl)c2)cc1` (stereo not drawn) [1180-20], the activity at 100 µM in assay [1] came out at 92%; in assay [4], 86%. Moreover, the values for the IC50 in assay [2] and in assay [3] were 11 µM and 18 µM, respectively. The Emax in assay [2] came out at 253%; in assay [3], 271%.

As to `COc1cc2c(cc1OC)CN(C(=O)c1cccc(Cl)c1)CC2` [1180-29], the values for the activity at 100 µM in assay [1], in assay [4] and in assay [2] (setting [5]) were 75%, 58% and 82%, respectively.

On to `COc1ccc(OCC2c3cc(OC)c(OC)cc3CCN2C(=O)c2ccccc2C)cc1` (stereo not drawn) [compound 1263], for which the activity at 100 µM turned out to be 105% in assay [2] (setting [5]) and 97% in assay [3].

On to `COc1ccc(OCC2c3cc(OC)c(OC)cc3CCN2C(=O)c2ccc(OC)cc2)cc1` (stereo not drawn) [compound 1364], for which the activity at 100 µM was determined as 75% in assay [4], 98% in assay [2] (setting [5]) and 93% in assay [3].

For the compound `C=C(OC)c1ccc(OCC2c3cc(OC)c(OC)cc3CCN2C(=O)c2ccc(OC)cc2)cc1` (stereo not drawn) [compound 1367], the activity at 100 µM turned out to be 104% in assay [2] (setting [5]) and 93% in assay [3].

In the case of `COc1ccc(OCC2c3cc(OC)c(OC)cc3CCN2C(=O)Nc2ccccc2)cc1` (stereo not drawn) [compound 1407], the activity at 100 µM in assay [2] (setting [5]) was 86%; in assay [3], 88%.

For the compound `COc1ccc(OCC2c3cc(OC)c(OC)cc3CCN2C(=O)c2ccc3c(c2)OCO3)cc1` (stereo not drawn) [compound 1408], the activity at 100 µM in assay [2] (setting [5]) worked out at 95%; in assay [3] it was 88%.

`COc1ccc(OCC2c3cc(OC)c(OC)cc3CCN2C(=O)c2ccccc2Cl)cc1` (stereo not drawn) [compound 1409]: the activity at 100 µM was 76% in assay [2] (setting [5]) and 82% in assay [3].

Turning to `COC(=O)c1ccc(OCC2c3cc(OC)c(OC)cc3CCN2C(=O)c2cccc(Br)c2)cc1` (stereo not drawn) [compound 1410], the activity at 100 µM in assay [2] (setting [5]) came out at 94%; in assay [3], 89%.

On to `COc1ccc(OCC2c3cc(OC)c(OC)cc3CCN2C(=O)Nc2ccc(Cl)cc2)cc1` (stereo not drawn) [compound 1411], for which the results for the activity at 100 µM in assay [2] (setting [5]) and in assay [3] were 84% and 66%, respectively.

Regarding `COc1ccc(OCC2c3cc(OC)c(OC)cc3CCN2C(=S)Nc2ccccc2)cc1` (stereo not drawn) [compound 1412], the activity at 100 µM stood at 93% in assay [2] (setting [5]) and 79% in assay [3].

Take `COc1ccc(OCC2c3cc(OC)c(OC)cc3CCN2C(=S)Nc2cccc(C)c2)cc1` (stereo not drawn) [compound 1413]: the figures for the activity at 100 µM in assay [2] (setting [5]) and in assay [3] were 102% and 74%, respectively.

Turning to `COc1ccc(OCC2c3cc(OC)c(OC)cc3CCN2C(=S)Nc2cccc(F)c2)cc1` (stereo not drawn) [compound 1414], the activity at 100 µM came out at 99% in assay [2] (setting [5]) and 93% in assay [3].

Turning to `COc1ccc(OCC2c3cc(OC)c(OC)cc3CCN2C(=S)Nc2cccc(Cl)c2)cc1` (stereo not drawn) [compound 1415], the activity at 100 µM in assay [2] (setting [5]) turned out to be 99%; in assay [3], 87%.

As for `COc1ccc(OCC2c3cc(OC)c(OC)cc3CCN2C(=S)Nc2cccc(Br)c2)cc1` (stereo not drawn) [compound 1416], the results for the activity at 100 µM in assay [2] (setting [5]) and in assay [3] were 96% and 87%, respectively.

With `COc1ccc(OCC2c3cc(OC)c(OC)cc3CCN2C(=O)c2ccncc2)cc1` (stereo not drawn) [compound 1510], the activity at 100 µM in assay [4] stood at 87%; in assay [2] (setting [5]), 90%; in assay [3] it was 87%.

For `COc1ccc(OCC2c3cc(OC)c(OC)cc3CCN2S(=O)(=O)c2cccc(Cl)c2)cc1` (stereo not drawn) [compound 1511], the activity at 10 µM in assay [2] (at 10 μM, read-out: 2C percent effect at the maximum tested concentration) was 99%; in assay [3] (read-out: 2D percent effect at the maximum tested concentration, at 10 μM), 96%.

The compound `NCC(=O)O` [glycine, reference compound] gave an EC50 in assay [3] of 0.2 µM.
